Experimental findings from patent US20180153830A1, “SELECTIVE INHIBITORS OF UNDIFFERENTIATED CELLS” (Yissum Research Development Company of the Hebrew …, priority 2012, published 2018) are described below.

SMILES strings stand for the structures. Where two headings read alike, the source gives them in different places.

What all share (type): cell-based
A short description of data set [1]: CellTiter-Glo counter-screen, hepatocytes. Particulars: human, human embryonic stem cell-derived hepatocytes (Cellartis), read-out: Inhibition (%) ES-derived hepatocytes. The method, then:
Human embryonic stem cell-derived hepatocytes were obtained from Cellartis (Goteborg, Sweden), and handled according to the manufacturer's instructions;
(§1) 696 confirmed hits from the confirmation screen were tested for profiling in a panel of 13 different cell types, using the same screening protocol described above (except in the case of embryonic stem cell-derived neural stem cells (NSCs) and mesenchymal stem cells (MSCs), for which the protocol is described below). As discussed below, compounds were tested either in dose-dependent multiple concentration manner or in single concentration manner. CSES2 and CSES2-SO2/3 cell lines and the early endodermal progenitors derived from this cell line (CSES2-SO2/3-differentiated) were screened at 8 concentrations ranging from 50 μM to 23 nM with 1:3 serial dilution steps. BJ-iPS28 cell line and the BJ fibroblasts from which it was derived were screened at 6 concentrations ranging from 50 μM to 200 nM with 1:3 serial dilution steps. Cardiomyocytes were screened in one concentration of 20 μM. HeLa and NTERA-2 cell lines were screened in duplicates of 20 μM. Kelly and Huh-7 were screened in triplicates of 20 μM. Hepatocytes were screened in duplicates of 20 μM in the original 96-well plates in which the cells arrived (40,000 cells per well, in 160 μl medium, the volumes of all reagents involved were adjusted accordingly). MSCs and NSCs were screened in duplicates of 12.5 μM.
(§2) In order to identify highly-selective cytotoxic inhibitors of hPSCs, the 696 cytotoxic inhibitors of hPSCs identified as described in Example 1 were counter-screened as described in the Materials and Methods section against other cell types, representative of all germ layers and developmental stages. Importantly, many of these cell types were differentiated from human ES or iPS cells. The screened cell types included ES-derived neural stem cells (NSCs), ES-derived mesenchymal stem cells (MSCs), ES-derived endodermal progenitor cells, ES-derived hepatocytes, iPS-derived cardiomyocytes, iPS-derived fibroblasts of origin (BJ fibroblasts), and three cancer cell lines: neuroblastoma (Kelly), cervical cancer (HeLa) and hepatocarcinoma (Huh7). The cell types and their relationship to stem cells are depicted schematically in FIG. 14.
Background: Cellular ATP, detected with luciferase, serves as a proxy for viable cell number.

In data set [2] the test system is BJ-iPS28 induced pluripotent stem cells. The experiment in a line: CellTiter-Glo luminescent cell viability screen, BJ-iPS28. Particulars: Homo sapiens; for EC50: 24 h; for inhibition at 20 µM: pluripotent stem cells. On the procedure:
(§3) 5,000 CSES2 cells were plated in 50 μl per well of mTeSR1 medium into black 384-well clear-bottom plates (Falcon BD) pre-coated with Matrigel™ using WellMate cell dispenser (Matrix, Hudson, N.H.). 24 hours after plating, medium was replaced with 25 μl of fresh medium and 25 μl of 40 μM compound medium solutions in 1% DMSO from the intermediate compound dilution plates. The plates were incubated at 37° C., in a 5% CO2 atmosphere, for the entire duration of the screen, apart from the time required for liquid handling. Cell viability was determined 24 hours after compound treatment using CellTiter-Glo® luminescent cell viability assay kits. 50 μl of CellTiter-Glo® reagent was added to each well of the assay plates and fully mixed. After incubation at room temperature for 15 minutes, 25 μl of liquid was transferred from each well into a white opaque-bottom 384-well plate (PerkinElmer), and luminescence was measured using an EnVision® plate reader (PerkinElmer). 16 neutral control wells (0.5% DMSO) and 8 positive control wells (5 μM amsacrine hydrochloride were used to normalize the compound effect. All liquid transfer steps were handled with a Biomek® FXP Laboratory Automation Workstation (Beckman Coulter, Fullerton, Calif.) and Muitidrop Combi liquid dispenser (Thermo Fisher, Waltham, Mass.). An Assay Analyzer (Genedata, Basel, Switzerland) was used for data pattern correction and calculation. The Spotfire software (Spotfire, Somerville, Mass.) was used for data illustration.
as §1, with “BJ-iPS28 cell line and the BJ fibroblasts from which it was derived were screened at 6 concentrations ranging from 50 μM to 200 nM with 1:3 serial dilution steps.” left out
(§4) The raw intensity data for each well were background-corrected by subtraction of the median intensities across all positive control wells on the same plate, and used to calculate the inhibitory effect of each compound per cell line. A Genedata Assay Analyzer and Condoseo were used for data pattern correction, calculation and IC50 curve fitting. A Z′ factor was determined for each plate.
The effect of the selected compounds on human iPS cells was then determined. […]

In data set [3] the test system is iPS-derived cardiomyocytes. The experiment in a line: CellTiter-Glo counter-screen, cardiomyocytes. The conditions noted are these: Homo sapiens, Cardiomyocyte. On the procedure:
Human induced pluripotent stem cell-derived cardiomyocytes were obtained from Cellular Dynamics International (Madison, Wis.), and handled according to the manufacturer's instructions;
as §1, §2

The test system of data set [4] is ES-derived mesenchymal stem cells. Put plainly: CellTiter-Glo counter-screen, mesenchymal stem cells. The conditions noted are these: Homo sapiens, at 20 μM (table title).
Data set [5] relates to CSES2 human embryonic stem cells. Put plainly: CellTiter-Glo luminescent cell viability screen, CSES2. Particulars: for inhibition at 20 µM: pluripotent stem cells. On the procedure:
as §3, with “Cell viability was determined 24 hours after compound treatment using CellTiter-Glo® luminescent cell viability assay kits.” left out
The compounds identified as hits from the primary screen were retested at a concentration of 20 μM against three pluripotent stem cell lines (CSES2, H9 and CSES2-SO2/3) for confirmation screens.
as §1, §4

Where [6] appears, read: 24 h, read-out: EC50 CSES2 24 hours.
The mark [7] stands for this setting: 48 h, read-out: EC50 CSES2 48 hours.

Turning to `O=C(NNc1ccccc1)c1ccncc1` [PluriSIn #1, isonicotinic acid N′-phenylhydrazide], the inhibition (in general, the relative decrease from the control value, in per cent) at 20 µM in data set [1] was 16.2%; in data set [2], 85.4%; in data set [3] it was 15%; in data set [5], 92.1%. Further, the results for the EC50 in data set [2], in data set [5] (setting [6]) and in data set [5] (setting [7]) were 2.39 µM, 1.54 µM and 1.99 µM, respectively. Further, the inhibition at 12.5 µM in data set [4] was -4.9%.

Turning to `O=C(Nc1ccccc1)n1cc(F)c(=O)[nH]c1=O` [PluriSIn #2], the inhibition at 20 µM in data set [1] turned out to be 13.2%; in data set [2], 56.8%; in data set [3], 4.4%; in data set [5] it was 84%. Further, the EC50 (usually the concentration at which the effect is half-maximal) was 6.96 µM in data set [2], 2.03 µM in data set [5] (setting [6]) and 2.63 µM in data set [5] (setting [7]). For the same molecule, the inhibition at 12.5 µM in data set [4] is -1.4%.

As to `Nc1cc(N)cc(COc2ccc(-c3ccccc3)cc2)c1` [PluriSIn #3], the inhibition at 20 µM in data set [1] was 2.8%; in data set [2] it was 81.1%; in data set [3], -2.9%; in data set [5] it was 98%. The values for the EC50 in data set [2], in data set [5] (setting [6]) and in data set [5] (setting [7]) were 1.68 µM, 2.98 µM and 1.32 µM, respectively. The inhibition at 12.5 µM in data set [4] was 3.3%.

In the case of `O=C(NCCc1ccc(O)cc1)c1ccc(N2CCCCC2)cc1` [PluriSIn #4], the inhibition at 20 µM is 10.5% in data set [1], 74.8% in data set [2], 14.1% in data set [3] and 84.7% in data set [5]. Also, the EC50 in data set [2] came to 0.75 µM; in data set [5] (setting [6]), 1.11 µM; in data set [5] (setting [7]), 0.594 µM. Also, the inhibition at 12.5 µM in data set [4] is -8.1%.

With `O=S(=O)(NNc1ccccc1)c1ccc2ccccc2c1` [PluriSIn #5], the inhibition at 20 µM in data set [1] worked out at 0.3%; in data set [2] it was 87.9%; in data set [3], 3.1%; in data set [5] it was 88.2%. The half-maximal effective concentration (EC50) was 1.52 µM in data set [2], 3.06 µM in data set [5] (setting [6]) and 1.27 µM in data set [5] (setting [7]). In data set [4], the inhibition at 12.5 µM turned out to be 6.4%.

For `Cc1ccc(NNC(=O)C(O)(c2ccccc2)c2cccs2)cc1` (centres unmarked) [PluriSIn #6, 2-hydroxy-2-(thiophen-2-yl)-2-phenylacetic acid 4-methyl-N′-phenylhydrazide], the inhibition at 20 µM in data set [1] is -5.2%; in data set [2], 83.3%; in data set [3] it was 2.6%; in data set [5], 94.8%. The EC50 in data set [2] amounted to 2.26 µM; in data set [5] (setting [6]), 2.55 µM; in data set [5] (setting [7]), 1.92 µM. Moreover, the inhibition at 12.5 µM in data set [4] is -19.7%.

On to `CC(=O)Oc1ccc(/C=C/c2ccc3c(c2)CCN3C)cc1` [PluriSIn #7], for which the inhibition at 20 µM in data set [1] is 15.3%; in data set [2], 89%; in data set [3], 6.8%; in data set [5] it was 104%. The figures for the concentration giving a half-maximal response (EC50) in data set [2], in data set [5] (setting [6]) and in data set [5] (setting [7]) were 2.13 µM, 1.98 µM and 0.749 µM, respectively. Besides, in data set [4], the inhibition at 12.5 µM is 35.8%.

On to `Cc1oc2ccccc2c1/C=N/Nc1ccccc1` [PluriSIn #8], for which the inhibition at 20 µM in data set [1] worked out at 14.6%; in data set [2] it was 82.2%; in data set [3], 8.9%; in data set [5], 98.6%. Further, the values for the EC50 in data set [2], in data set [5] (setting [6]) and in data set [5] (setting [7]) were 1.69 µM, 2.31 µM and 2.39 µM, respectively. In addition, the inhibition at 12.5 µM in data set [4] was -33.8%.

For the molecule `C/C(=N\O)NNc1ccc(Cl)cc1` [PluriSIn #9], the inhibition at 20 µM in data set [1] came out at 6.1%; in data set [2], 92.3%; in data set [3], 24.7%; in data set [5], 102%. Besides, the EC50 in data set [2] was 3.42 µM; in data set [5] (setting [6]), 7.96 µM; in data set [5] (setting [7]) it was 2.16 µM. In addition, the inhibition at 12.5 µM in data set [4] is -12.6%.

Regarding `CCCCCC(=O)NNc1ccc(Cl)cc1` [PluriSIn #10], the inhibition at 20 µM is 3.6% in data set [1], 87.4% in data set [2], 12.6% in data set [3] and 95% in data set [5]. Further, the EC50 in data set [2] amounted to 2.43 µM; in data set [5] (setting [6]) it was 1.67 µM; in data set [5] (setting [7]), 2.05 µM. In addition, the inhibition at 12.5 µM in data set [4] was found to be 3.9%.

`CCOC(=O)CN1CC(=O)/C(=C\NNc2ccccc2)C1=O` [PluriSIn #11]: the inhibition at 20 µM in data set [1] is -4.7%; in data set [2] it was 90.6%; in data set [3], -5.8%; in data set [5] it was 98.8%. The EC50 in data set [2] was determined as 3.12 µM; in data set [5] (setting [6]), 3.83 µM; in data set [5] (setting [7]), 2.58 µM. Also, the inhibition at 12.5 µM in data set [4] stood at 6%.

In the case of `CCN(CC)C(=O)C(=O)c1c(-c2ccccc2)[nH]c2c1sc1ccccc12` [PluriSIn #12], the inhibition at 20 µM in data set [1] is -3.9%; in data set [2], 83.4%; in data set [3] it was -3.3%; in data set [5], 93%. The values for the EC50 in data set [2], in data set [5] (setting [6]) and in data set [5] (setting [7]) were 5.4 µM, 6.85 µM and 5.1 µM, respectively. For the same molecule, in data set [4], the inhibition at 12.5 µM is -7.3%.

On to `O=C1C=CC=C1/C=C/C(=N\Nc1ccccc1)c1ccccc1` [PluriSIn #13], for which the inhibition at 20 µM in data set [1] was found to be 13.4%; in data set [2] it was 94.4%; in data set [3], 22.9%; in data set [5], 101%. Moreover, the 50% effective concentration (EC50) in data set [2] stood at 1.51 µM; in data set [5] (setting [6]) it was 1.54 µM; in data set [5] (setting [7]), 1.91 µM. Besides, the inhibition at 12.5 µM in data set [4] is -7.3%.
